Measurements taken from article PMC3631439 (ACS chemical biology, 2013).
“Also recorded” adds a separate entry of the source. Read-outs that look alike come from different tables or passages of the source.

Assays:
[1] = test system: TNFα secretion in LNCaP cells; assay: TNFα secretion by LNCaP cells; conditions: for inhibition of secretion of TNFα induced by PMA: 30 nM PMA; for secretion of TNFα: 24 h
[2] = target: mouse GFP-PKCδ (Mus musculus, UniProt P28867); assay: Translocation of mouse GFP-PKCδ in LNCaP cells; format: cell-based; conditions: 1000 nM PMA, 1000 nM bryostatin 1, 3000 nM bryostatin 7
Sequence of mouse GFP-PKCδ (P28867 whole entry): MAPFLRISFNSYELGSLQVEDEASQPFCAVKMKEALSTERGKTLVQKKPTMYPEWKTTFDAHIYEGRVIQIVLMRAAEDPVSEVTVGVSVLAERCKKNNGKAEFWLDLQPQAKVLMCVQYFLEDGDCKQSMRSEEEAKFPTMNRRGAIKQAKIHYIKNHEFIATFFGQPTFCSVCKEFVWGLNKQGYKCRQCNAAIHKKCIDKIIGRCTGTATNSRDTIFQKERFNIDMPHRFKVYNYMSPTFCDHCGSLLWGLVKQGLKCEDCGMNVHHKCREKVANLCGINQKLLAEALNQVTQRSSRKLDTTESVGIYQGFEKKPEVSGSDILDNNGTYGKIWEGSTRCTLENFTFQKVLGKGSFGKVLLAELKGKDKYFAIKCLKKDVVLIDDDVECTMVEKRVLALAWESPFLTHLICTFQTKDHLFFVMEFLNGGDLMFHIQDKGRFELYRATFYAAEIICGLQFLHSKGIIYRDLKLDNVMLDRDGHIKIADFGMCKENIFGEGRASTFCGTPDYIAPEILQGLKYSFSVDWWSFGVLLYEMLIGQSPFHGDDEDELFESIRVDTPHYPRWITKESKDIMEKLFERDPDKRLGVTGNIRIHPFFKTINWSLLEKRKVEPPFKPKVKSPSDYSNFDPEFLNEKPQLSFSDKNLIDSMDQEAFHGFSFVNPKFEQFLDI

[3] = test system: U937 leukemia cells; format: cell-based, human; conditions: 60 hours; for cell attachment: U937 cells; for inhibition of attachment induced by PMA: co-administered with PMA
[4] = test system: phorbol ester responsive genes in LNCaP cells; assay: Gene induction in LNCaP cells; format: cell-based, human; conditions: 6 hours, 1000 nM
[5] = target: PKCβII (Homo sapiens, UniProt P05771); assay: Down regulation of PKCβII in U937 cells; format: cell-based
Sequence of PKCβII (P05771 1-673 isoform P05771-2): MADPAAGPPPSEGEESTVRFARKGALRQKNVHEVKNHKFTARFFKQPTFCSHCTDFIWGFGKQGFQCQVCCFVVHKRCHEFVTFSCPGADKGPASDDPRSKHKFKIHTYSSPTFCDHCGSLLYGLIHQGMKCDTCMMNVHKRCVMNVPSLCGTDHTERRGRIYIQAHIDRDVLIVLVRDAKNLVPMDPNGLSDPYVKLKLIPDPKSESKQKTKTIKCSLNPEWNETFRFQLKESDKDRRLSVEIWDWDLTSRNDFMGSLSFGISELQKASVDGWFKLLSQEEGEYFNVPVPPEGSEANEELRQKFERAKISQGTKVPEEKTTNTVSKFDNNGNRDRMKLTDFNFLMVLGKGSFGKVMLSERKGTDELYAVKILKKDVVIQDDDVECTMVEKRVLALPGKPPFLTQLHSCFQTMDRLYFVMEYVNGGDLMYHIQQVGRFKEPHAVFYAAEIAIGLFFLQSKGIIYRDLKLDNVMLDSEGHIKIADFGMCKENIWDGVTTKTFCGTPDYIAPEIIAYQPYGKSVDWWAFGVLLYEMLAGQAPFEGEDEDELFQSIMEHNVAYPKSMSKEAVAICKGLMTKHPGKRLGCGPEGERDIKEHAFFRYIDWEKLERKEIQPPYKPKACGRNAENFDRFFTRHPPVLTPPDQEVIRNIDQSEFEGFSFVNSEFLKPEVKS

[6] = test system: U937 cells; format: cell-based, human; conditions: araC 1 μM, 24 h; bryostatin 1 100 nM, bryostatin 7 1000 nM
[7] = target: human GFP-PKCα (Homo sapiens, UniProt P17252); assay: Translocation of human GFP-PKCα in CHO cells; format: cell-based
[8] = target: T1, PKCε (Homo sapiens, UniProt Q02156); assay: Down regulation of PKCε in U937 cells; format: cell-based; conditions: data not shown
T1 sequence (Q02156 1-737): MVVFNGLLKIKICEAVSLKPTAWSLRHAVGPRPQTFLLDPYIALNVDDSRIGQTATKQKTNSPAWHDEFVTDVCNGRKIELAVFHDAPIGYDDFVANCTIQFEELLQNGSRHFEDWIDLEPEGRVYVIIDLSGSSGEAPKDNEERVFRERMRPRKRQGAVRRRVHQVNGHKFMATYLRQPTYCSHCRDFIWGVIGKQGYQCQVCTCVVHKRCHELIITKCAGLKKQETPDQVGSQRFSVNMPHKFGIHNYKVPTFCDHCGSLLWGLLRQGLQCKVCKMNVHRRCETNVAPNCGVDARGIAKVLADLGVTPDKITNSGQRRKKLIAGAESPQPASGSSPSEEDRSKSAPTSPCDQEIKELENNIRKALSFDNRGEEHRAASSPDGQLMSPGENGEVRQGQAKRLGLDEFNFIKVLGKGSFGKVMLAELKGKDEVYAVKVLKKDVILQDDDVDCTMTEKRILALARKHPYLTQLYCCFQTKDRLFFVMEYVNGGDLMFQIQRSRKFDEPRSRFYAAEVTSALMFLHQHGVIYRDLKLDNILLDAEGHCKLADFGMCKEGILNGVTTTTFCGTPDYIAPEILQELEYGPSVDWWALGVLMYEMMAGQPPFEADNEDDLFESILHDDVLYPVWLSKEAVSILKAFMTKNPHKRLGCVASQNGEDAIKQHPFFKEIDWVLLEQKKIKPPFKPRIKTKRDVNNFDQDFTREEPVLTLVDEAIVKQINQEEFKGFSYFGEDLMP

[9] = target: human GFP-PKCδ (Homo sapiens, UniProt Q05655); assay: Translocation of human GFP-PKCδ in LNCaP cells; format: cell-based; conditions: 1000 nM PMA, 1000 nM bryostatin 1, 3000 nM bryostatin 7
Sequence of human GFP-PKCδ (Q05655 whole entry): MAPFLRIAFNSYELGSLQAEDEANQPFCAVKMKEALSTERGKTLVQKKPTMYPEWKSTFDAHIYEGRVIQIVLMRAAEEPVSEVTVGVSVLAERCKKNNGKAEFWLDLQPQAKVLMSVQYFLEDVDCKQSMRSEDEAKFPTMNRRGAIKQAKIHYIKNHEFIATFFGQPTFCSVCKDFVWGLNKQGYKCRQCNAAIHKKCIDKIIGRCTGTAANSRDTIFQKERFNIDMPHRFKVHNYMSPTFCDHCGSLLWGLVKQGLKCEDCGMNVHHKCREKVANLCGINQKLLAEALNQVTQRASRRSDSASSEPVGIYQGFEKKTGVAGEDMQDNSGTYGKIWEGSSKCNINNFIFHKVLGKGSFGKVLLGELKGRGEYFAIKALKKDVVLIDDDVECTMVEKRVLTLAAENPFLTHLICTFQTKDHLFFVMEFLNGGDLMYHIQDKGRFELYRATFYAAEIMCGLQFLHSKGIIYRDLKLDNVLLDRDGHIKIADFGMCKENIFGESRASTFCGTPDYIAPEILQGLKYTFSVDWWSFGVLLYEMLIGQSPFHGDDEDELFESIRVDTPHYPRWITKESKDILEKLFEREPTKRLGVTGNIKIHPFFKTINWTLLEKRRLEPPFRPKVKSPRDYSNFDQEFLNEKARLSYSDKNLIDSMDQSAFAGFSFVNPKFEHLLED

[10] = target: Mouse PKC α (Mus musculus, UniProt P20444); assay: biochemical; format: binding
[11] = target: T2, human YFP-PKCε (Homo sapiens, UniProt Q02156); assay: Translocation of human YFP-PKCε in LNCaP cells; format: cell-based
T2 sequence (Q02156 1-737): T1 sequence (Q02156 1-737)

[12] = test system: LNCaP human prostate cancer cells; assay: Proliferation of LNCaP cells; conditions: for inhibition of proliferation of LNCaP cells: 36 h; for block of inhibition of proliferation by PMA: PMA 30 nM co-administered
[13] = test system: U937 leukemia cells; format: cell-based, human; conditions: 60 hours; for suppression of growth inhibition induced by PMA: co-administered with PMA
[14] = target: PKCδ (Homo sapiens, UniProt Q05655); assay: Down regulation of PKCδ in U937 cells; format: cell-based
Sequence of PKCδ (Q05655 whole entry): as the sequence (Q05655 whole entry) above

[15] = test system: PKC signaling in LNCaP cells; assay: PKC and downstream signaling in LNCaP cells; format: cell-based, human; conditions: 60 min
[16] = test system: tumor promotion; conditions: cited from earlier work
[17] = test system: TNFα secretion in U937 cells; assay: TNF-alpha secretion by U937 cells; format: cell-based, human
[18] = test system: PKC isoforms and PKD1 in LNCaP cells; assay: Subcellular fractionation of LNCaP cells; format: cell-based, human; conditions: 60 min
[19] = test system: PKC; conditions: cited from earlier work
[20] = test system: human platelets; conditions: cited from earlier work
[21] = test system: human PKC isoforms α, βII, δ, and ε
[22] = read-out: EC50 for down regulation of PKCβII, 24 hours

Compound	inhibition of secretion of TNFα induced by PMA [1]	secretion of TNFα [1]	translocation pattern of mouse GFP-PKCδ [2]	cell attachment [3]	inhibition of attachment induced by PMA [3]	changes in levels of mRNA expression [4]	synergy with araC for loss of mitochondrial membrane potential [6]	translocation pattern of human GFP-PKCα ([7]; CHO cells, 1000 nM)	down regulation of PKCε [8]	translocation pattern of human GFP-PKCδ [9]	Ki [10] [nM]	translocation pattern of human YFP-PKCε ([11]; LNCaP cells, 1000 nM)	inhibition of proliferation of LNCaP cells [12]	block of inhibition of proliferation by PMA [12]	inhibition of U937 cell proliferation [13]	suppression of growth inhibition induced by PMA [13]	down regulation of PKCδ ([14]; 24 hours)	PKCδ phosphorylation on Y311 [15]	induction of PKCδ phosphorylation at S299 [15]	tumor promoting activity [16]	also measured
CCC/C=C/C=C/C(=O)O[C@H]1/C(=C/C(=O)OC)C[C@H]2C[C@H]([C@@H](C)O)OC(=O)C[C@H](O)C[C@@H]3C[C@H](OC(C)=O)C(C)(C)[C@](O)(C[C@@H]4C/C(=C/C(=O)OC)C[C@H](/C=C/C(C)(C)[C@]1(O)O2)O4)O3 [Bryostatin 1, bryostatin 1]	inhibits the secretion of TNFα induced by PMA	minimal secretion of TNFα	only to the nuclear membrane and internal membranes	much reduced level of cell attachment compared to that induced by PMA	able to inhibit the attachment induced by PMA	generally similar for bryostatin 1 and bryostatin 7 and less than they were for PMA	able to synergize with araC	some translocation of the human PKCα to the plasma membrane but with most forming a thick ring around the nucleus	little down regulation	some initial plasma membrane translocation	0.48 ± 0.03	resembled that with PMA, albeit less extensive	little inhibitory effect	prevents the inhibition by PMA	very limited, biphasic inhibition	able to suppress the growth inhibition induced by PMA	down regulation with a biphasic dose response curve	inability to induce efficient PKCδ phosphorylation on Y311	closely similar	–	DC50 [5, 22]: 0.31 ± 0.005 nM
CCCCCCCCCCCCCC(=O)O[C@@H]1[C@@H](C)[C@@]2(O)[C@@H](C=C(CO)C[C@]3(O)C(=O)C(C)=C[C@@H]23)[C@@H]2C(C)(C)[C@]12OC(C)=O [PMA]	–	–	initial translocation to the plasma membrane	–	–	–	–	slow but clear plasma membrane translocation	little down regulation	–	–	rapid clearing of the cytoplasm with translocation of PKCε to the plasma membrane	inhibits cellular proliferation	–	–	–	little down regulation	–	–	tumor promoter	level of down regulation of PKCβII ([5]; 24 hours): less down regulation; TNFα secretion [17]: higher level of secretion; PKCδ in the nuclear enriched fraction [18]: increase in PKCδ in the nuclear enriched fraction; pPKD1 in the nuclear fraction [18]: substantial accumulation in the nuclear fraction
CC(=O)O[C@@]12C[C@@H](C)[C@@]3(O)[C@@H](C=C(CO)C[C@]4(O)C(=O)C(C)=C[C@@H]34)[C@@H]1C2(C)C [prostratin]	–	–	–	–	–	–	–	–	–	–	–	–	–	–	–	–	–	–	–	inhibits tumor promotion	–
CC(C)[C@H]1C(=O)N[C@H](CO)Cc2c[nH]c3cccc(c23)N1C [indolactam V]	–	–	–	–	–	–	–	–	–	–	–	–	–	–	–	–	–	–	–	tumor promoters	–
COC(=O)/C=C1/C[C@H]2C[C@]3(O)O[C@H](C[C@@H](O)CC(=O)O[C@@H]([C@@H](C)O)C[C@@H]4C/C(=C\C(=O)OC)[C@H](OC(C)=O)[C@@](O)(O4)C(C)(C)/C=C/[C@@H](C1)O2)C[C@H](OC(C)=O)C3(C)C [Bryostatin 7, bryostatin 7]	inhibits the secretion of TNFα induced by PMA	minimal secretion of TNFα	only to the nuclear membrane and internal membranes	much reduced level of cell attachment compared to that induced by PMA; also recorded: induced slightly more attachment than did bryostatin 1	able to inhibit the attachment induced by PMA	generally similar for bryostatin 1 and bryostatin 7 and less than they were for PMA	able to synergize with araC	–	–	only caused translocation of the human GFP-PKCδ to nuclear and internal membranes	0.26 ± 0.06	–	fails to inhibit proliferation	able to block the inhibition of proliferation by PMA	very limited, biphasic inhibition; also recorded: inhibited proliferation slightly more than did bryostatin 1	able to suppress the growth inhibition induced by PMA	resembled bryostatin 1	inability to induce efficient PKCδ phosphorylation on Y311	closely similar	–	binding affinity towards PKC among bryostatins [19]: highest binding affinity towards PKC; aggregation of human platelets [20]: mimics the activity of the phorbol ester PMA in inducing aggregation of human platelets; potency for PKCβII down regulation, fold weaker than bryostatin 1 ([5]; 24 hours): 3 fold; EC50 [5, 22]: 0.97 ± 0.08 nM; selectivity among PKC isoforms [21]: little selectivity among these PKC isoforms; translocation pattern of human GFP-PKCα [7]: pattern of translocation similar to that of bryostatin 1; translocation pattern of human YFP-PKCε [11]: no plasma membrane translocation; PKCδ in the nuclear enriched fraction [18]: resembled bryostatin 1 for this response; pPKD1 in the nuclear fraction [18]: behaved similarly to bryostatin 1; potency for PKCδ down regulation, fold weaker than bryostatin 1 ([14]; 24 hours): approximately 3 fold; EC50 ([14]; read-out: EC50 for down regulation of PKCδ, 24 hours): 0.22 ± 0.03 nM; induction of cFos or EGR1 [15]: reduced induction of cFos or EGR1 at 60 min compared to bryostatin 1; phosphorylation of PKD1 [15]: somewhat less phosphorylation of PKD1 than did bryostatin 1
